The source made the active and inactive calls. The calls are words filed in the database; no cut-off is given here.
What was measured:
Assay type in all cases: functional, organism-based
Plasmodium chabaudi [1] = assay: Antimalarial activity against chloroquine-resistant Plasmodium chabaudi infected in mouse assessed as parasitemia at 10 mg/kg, po administered for 3 consecutive days; set-up: dose 10 mg/kg
Plasmodium chabaudi [2] = assay: Reversal of chloroquine-resistance in Plasmodium chabaudi infected in mouse at 10 mg/kg, po coadministered with chloroquine 3 mg/kg, iv administered for 3 consecutive days measured on day 4
Plasmodium chabaudi [3] = assay: Reversal of chloroquine-resistance in Plasmodium chabaudi infected in mouse at 20 mg/kg, po coadministered with chloroquine 3 mg/kg, iv administered for 3 consecutive days measured on day 4

Compound | Activity (Plasmodium chabaudi [1]) | Activity (Plasmodium chabaudi [2]) | Activity (Plasmodium chabaudi [3])
Oc1ccc2c3c1O[C@H]1c4[nH]c5c(c4C[C@@]4(O)[C@@H](C2)N(CC2CC2)CC[C@]314)C[C@@]1(O)[C@H]2Cc3ccc(O)c4c3[C@@]1(CCN2CC1CC1)[C@H]5O4 | inactive | Active | –
Oc1ccc2c3c1O[C@H]1c4[nH]c5ccccc5c4C[C@@]4(O)[C@@H](C2)N(CC2CC2)CC[C@]314 | inactive | Active | –
Oc1ccc2c3c1O[C@H]1c4oc5ccccc5c4C[C@@]4(O)[C@@H](C2)N(CC2CC2)CC[C@]314 | Active | Active | –
COc1ccc(CCN(C)CCCC(C#N)(c2ccc(OC)c(OC)c2)C(C)C)cc1OC (stereo not drawn) | – | – | Active
O=C1CC[C@@]2(O)[C@H]3Cc4ccc(O)c5c4[C@@]2(CCN3CC2CC2)[C@H]1O5 | inactive | Active | –
O=C1/C(=C/c2ccccc2)C[C@@]2(O)[C@H]3Cc4ccc(O)c5c4[C@@]2(CCN3CC2CC2)[C@H]1O5 | inactive | Active | –
CCN(CC)CCCC(C)Nc1ccnc2cc(Cl)ccc12 (stereo not drawn) | inactive | inactive | –
